Laboratory results from patent publication US20250268897A1, “USE OF HETEROCYCLIC COMPOUND IN TREATING DISEASES RELATED TO KINASE DRUG-RESISTANT MUTATION AND METHOD THEREFOR” (Sichuan Kelun-Biotech Biopharmaceutical Co., Ltd., priority 2021, published 2025).

Tests used:
[1] = system: Ba/F3 KIF5B-RET^G810S cells; experiment: Inhibition of cell proliferation, Cell Titer Glo, Ba/F3 KIF5B-RET^G810S; assay type: cell-based
Method: (§1) Experimental purpose: To evaluate the inhibitory effect of the compound on proliferation of three BaF3 cell lines (Ba/F3 KIF5B-RET^G810R, Ba/F3 KIF5B-RET^G810S, Ba/F3 KIF5B-RET^G810C) in vitro.
(§2) Experimental method: Three Ba/F3 cell lines (Ba/F3 KIF5B-RET^G810R, Ba/F3 KIF5B-RET^G810S Ba/F3 KIF5B-RET^G810C) in logarithmic phase were respectively collected and inoculated into 96-well plates, with 2000 cells/95 μl/well. […] In addition, negative control wells (without the test compound) and blank control wells (without cells) were set.
(§3) the inhibition rate % was fitted using the four-parameter equation “log(agonist) vs response-variable slope (four parameters)” in GraphPad Prism 6.0, and the IC50 was obtained by calculation.

[2] = system: Ba/F3 KIF5B-RET^G810C cells; experiment: Inhibition of cell proliferation, Cell Titer Glo, Ba/F3 KIF5B-RET^G810C; assay type: cell-based
Method: as §1, §2, §3

RET-G810R enzyme = RET-G810R enzyme (Homo sapiens (Human), UniProt P07949, G810R); experiment: RET inhibition experiment, HTRF KinEASE-TK kit, RET-G810R; assay type: biochemical
RET-G810S enzyme = RET-G810S enzyme (Homo sapiens (Human), UniProt P07949, G810S); experiment: RET inhibition experiment, HTRF KinEASE-TK kit, RET-G810S; assay type: biochemical
[3] = system: Ba/F3 KIF5B-RET^G810R cells; experiment: Inhibition of cell proliferation, Cell Titer Glo, Ba/F3 KIF5B-RET^G810R; assay type: cell-based
Method: as §1, §2, §3

[4] = system: Ba/F3 KIF5B-RET^G810R subcutaneous tumour; experiment: In vivo efficacy in BALB/c Nude mouse model with Ba/F3 KIF5B-RET^G810R subcutaneous tumour; details: 30 mg/kg, PO, BID × 12
RET-G810C enzyme = RET-G810C enzyme (Homo sapiens (Human), UniProt P07949, G810C); experiment: RET inhibition experiment, HTRF KinEASE-TK kit, RET-G810C; assay type: biochemical
[5] = Mus musculus, BaF3, 72 h, 3 days culture, Cell Titer Glo

RET-G810S enzyme, sequence (P07949 29-1114 G810S): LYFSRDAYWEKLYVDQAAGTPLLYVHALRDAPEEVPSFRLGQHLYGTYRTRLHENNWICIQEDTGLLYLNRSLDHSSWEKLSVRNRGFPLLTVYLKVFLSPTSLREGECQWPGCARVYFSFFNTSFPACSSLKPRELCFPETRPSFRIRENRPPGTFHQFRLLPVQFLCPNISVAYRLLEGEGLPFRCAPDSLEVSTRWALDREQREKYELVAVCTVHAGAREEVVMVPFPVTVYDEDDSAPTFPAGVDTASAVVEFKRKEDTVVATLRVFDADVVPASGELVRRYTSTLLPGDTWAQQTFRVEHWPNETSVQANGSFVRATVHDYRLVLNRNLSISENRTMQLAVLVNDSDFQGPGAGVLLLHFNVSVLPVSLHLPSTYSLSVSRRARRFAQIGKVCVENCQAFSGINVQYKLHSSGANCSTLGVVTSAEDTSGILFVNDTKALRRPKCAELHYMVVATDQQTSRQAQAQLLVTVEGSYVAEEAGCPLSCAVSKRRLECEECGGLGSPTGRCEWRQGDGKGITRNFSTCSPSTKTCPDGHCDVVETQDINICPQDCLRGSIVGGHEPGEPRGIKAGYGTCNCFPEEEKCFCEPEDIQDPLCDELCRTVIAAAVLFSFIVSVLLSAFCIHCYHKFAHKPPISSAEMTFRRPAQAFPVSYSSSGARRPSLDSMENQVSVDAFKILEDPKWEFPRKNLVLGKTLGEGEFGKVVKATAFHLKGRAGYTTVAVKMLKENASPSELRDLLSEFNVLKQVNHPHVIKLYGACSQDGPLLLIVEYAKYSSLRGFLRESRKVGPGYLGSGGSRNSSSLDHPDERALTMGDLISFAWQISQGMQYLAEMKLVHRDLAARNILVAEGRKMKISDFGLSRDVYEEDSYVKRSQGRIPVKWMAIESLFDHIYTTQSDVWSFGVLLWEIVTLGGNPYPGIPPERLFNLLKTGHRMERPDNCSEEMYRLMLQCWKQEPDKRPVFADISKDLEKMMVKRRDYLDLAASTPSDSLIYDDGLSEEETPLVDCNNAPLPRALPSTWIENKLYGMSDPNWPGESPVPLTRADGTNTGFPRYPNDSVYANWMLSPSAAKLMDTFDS
RET-G810C enzyme, sequence (P07949 29-1114 G810C): as the sequence (P07949 29-1114 G810S) above, with S782C counted along it
RET-G810R enzyme, sequence (P07949 29-1114 G810R): as the sequence (P07949 29-1114 G810S) above, with S782R counted along it

Cc1cc(Nc2cc(C)[nH]n2)nc(-c2ccc(N3CC4CC(C3)N4Cc3ccc(-n4cc(F)cn4)nc3)nc2)n1.O=C(O)/C=C/C(=O)O [Compound 1-A, Fumarate of 2-(6-(6-((6-(4-fluoro-1H-pyrazol-1-yl)pyridin-3-yl)methyl)-3,6-diazabicyclo [3.1.1]heptan-3-yl)pyridin-3-yl)-6-methyl-N-(5-methyl-1H-pyrazol-3-yl) pyrimidin-4-amine]
IC50 [1, 5]: 20.2 ± 0.35 nM | Inhibiting the proliferation of Ba/F3 KIF5B-RET^G810S cells (in words) ([1]; comparison with controls): superior to BLU-667 and Loxo-292 | IC50 [2, 5]: 65.3 ± 1 nM | Inhibiting the proliferation of Ba/F3 KIF5B-RET^G810C cells (in words) ([2]; comparison with controls): superior to BLU-667 and Loxo-292 | IC50 (RET-G810R enzyme; Table 7, value ± spread): 19.6 ± 0.67 nM | Inhibition on RET-G810R enzyme (in words) (RET-G810R enzyme; summary of tables): remarkably inhibited | IC50 (RET-G810S enzyme; Table 7, value ± spread): 2.69 ± 0.56 nM | Inhibition on RET-G810S enzyme (in words) (RET-G810S enzyme; summary of tables): remarkably inhibited | IC50 [3, 5]: 26.3 ± 5.76 nM | Inhibiting the proliferation of Ba/F3 KIF5B-RET^G810R cells (in words) ([3]; comparison with controls): superior to BLU-667 and Loxo-292 | TGI (%) tumour growth inhibition rate [4]: 72.37% | VP12 (mm^3, mean ± SEM): tumour volume on Day 12 of administration [4]: 278.53 ± 51.13 mm^3 | VP-1 (mm^3, mean ± SEM): tumour volume one day before administration ([4]; baseline of the group): 101.08 ± 4.75 mm^3 | IC50 (RET-G810C enzyme; Table 7, value ± spread): 53.2 ± 10.7 nM | Inhibition on RET-G810C enzyme (in words) (RET-G810C enzyme; summary of tables): remarkably inhibited
